Where no end group is shown, it is not given here.
Columns and labels:
[1] = test system: E5-p53TAD1/MDM2 interaction; details: for number of translocation events, % of free E5-p53TAD1 peptide: molar ratio 1 : 3 : 5; for number of translocation events N after inhibitor addition: molar ratio 1 : 3 : 5 (peptide : MDM2 : inhibitor), 10 min-current trace
MDM2 = details: method not stated; cited from earlier work
MDM2 (residues 3–109) = MDM2 (residues 3–109) (Homo sapiens, UniProt Q00987); assay: aerolysin nanopore detection of peptide/MDM2 interaction; assay type: binding
MDM2 (residues 3–109), sequence (Q00987 3-109): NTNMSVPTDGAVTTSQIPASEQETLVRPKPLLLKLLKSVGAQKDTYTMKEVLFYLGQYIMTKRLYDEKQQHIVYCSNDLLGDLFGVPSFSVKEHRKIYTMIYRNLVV

aerolysin nanopore = aerolysin nanopore (Aeromonas hydrophila, UniProt P09167); assay: aerolysin nanopore single-channel recording of free analyte
aerolysin nanopore, sequence (P09167 24-445 limits assumed): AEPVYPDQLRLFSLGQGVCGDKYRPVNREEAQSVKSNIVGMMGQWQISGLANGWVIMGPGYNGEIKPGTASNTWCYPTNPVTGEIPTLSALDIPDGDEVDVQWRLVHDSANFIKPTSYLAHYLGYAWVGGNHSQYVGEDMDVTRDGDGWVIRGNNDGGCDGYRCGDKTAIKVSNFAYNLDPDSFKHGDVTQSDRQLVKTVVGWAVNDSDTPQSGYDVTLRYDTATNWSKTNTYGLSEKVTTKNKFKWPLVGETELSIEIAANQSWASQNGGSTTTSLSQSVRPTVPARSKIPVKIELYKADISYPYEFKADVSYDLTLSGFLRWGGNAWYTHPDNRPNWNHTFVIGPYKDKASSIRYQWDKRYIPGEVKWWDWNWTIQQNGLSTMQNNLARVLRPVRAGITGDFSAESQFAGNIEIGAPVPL

COc1ccc(C2=N[C@@H](c3ccc(Cl)cc3)[C@@H](c3ccc(Cl)cc3)N2C(=O)N2CCNC(=O)C2)c(OC(C)C)c1 [Nutlin-3]
number of translocation events, % of free E5-p53TAD1 peptide [1]: ~61.3% | number of translocation events N after inhibitor addition [1]: 965

CN[C@@H](C)C(=O)N[C@H](C(=O)N1CCC[C@H]1c1nc(C(=O)c2ccc(F)cc2)cs1)C1CCCCC1 [LCL161]
MDM2 binding (in words) (MDM2): does not bind to MDM2

CC(C)[C@@H](CS(=O)(=O)C(C)C)N1C(=O)[C@@](C)(CC(=O)O)C[C@H](c2cccc(Cl)c2)[C@H]1c1ccc(Cl)cc1 [AMG232]
number of translocation events, % of free E5-p53TAD1 peptide [1]: ~99.8% | number of translocation events N after inhibitor addition [1]: 1570

EEEEESQETFSDLWKLLPEN [E5-p53TAD1]
Kd (MDM2 (residues 3–109)): 1.07 ± 0.09 µM | dwell time of extraordinarily long-lived current blockage (MDM2 (residues 3–109); E5-p53TAD1/MDM2 complex, 140 mV): 0.1 s ∼ tens of min | number of nanopore events N (aerolysin nanopore; free E5-p53TAD1 peptide, 10 min-current trace): 1573 | dwell time of short-lived translocation / nanopore events (aerolysin nanopore; free peptide): < 10^2 ms | mean dwell time td (aerolysin nanopore; free peptide, 140 mV, single exponential fit): ~0.8 ms
